Results as given in ChEMBL document CHEMBL1140822, “Prodrug thiamine analogs as inhibitors of the enzyme transketolase” (Bioorg Med Chem Lett, 2008).
Active and inactive are the calls of the source. The calls are words filed in the database; no cut-off is given here.

Columns and labels:
[1] = molecular target: T1, Transketolase (Homo sapiens, UniProt P29401); assay: Inhibition of transketolase in human HCT116 cells; type: cell-based, HCT-116
T1 sequence (P29401 whole entry): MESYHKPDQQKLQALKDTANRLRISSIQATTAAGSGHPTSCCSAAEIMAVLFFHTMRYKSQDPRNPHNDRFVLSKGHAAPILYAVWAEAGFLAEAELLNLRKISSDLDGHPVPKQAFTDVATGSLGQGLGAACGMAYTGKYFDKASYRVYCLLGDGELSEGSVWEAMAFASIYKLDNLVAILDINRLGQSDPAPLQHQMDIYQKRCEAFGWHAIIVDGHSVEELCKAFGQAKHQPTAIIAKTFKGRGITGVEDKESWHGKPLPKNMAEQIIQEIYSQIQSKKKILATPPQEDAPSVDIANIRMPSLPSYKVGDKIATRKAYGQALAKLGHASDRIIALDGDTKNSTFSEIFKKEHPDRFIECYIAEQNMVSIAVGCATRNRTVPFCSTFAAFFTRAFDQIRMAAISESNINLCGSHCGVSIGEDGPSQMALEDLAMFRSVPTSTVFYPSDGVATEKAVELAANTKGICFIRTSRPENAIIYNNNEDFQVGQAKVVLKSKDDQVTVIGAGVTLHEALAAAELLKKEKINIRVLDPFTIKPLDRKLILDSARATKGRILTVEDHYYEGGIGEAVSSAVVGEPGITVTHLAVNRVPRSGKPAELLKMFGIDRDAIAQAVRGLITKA

[2] = Cmax in rat at 3 mg/kg, iv; type: ADME, organism-based; parameters: dose 3 mg/kg, route intravenous; conditions: in vivo
[3] = AUC in rat at 3 mg/kg, iv; type: ADME, organism-based; parameters: dose 3 mg/kg, route intravenous; conditions: plasma
[4] = Clearance in rat at 3 mg/kg, iv; type: ADME, organism-based; parameters: dose 3 mg/kg, route intravenous; conditions: in vivo
[5] = Mean residence time in rat at 3 mg/kg, iv; type: ADME, organism-based; parameters: dose 3 mg/kg, route intravenous; conditions: in vivo
[6] = Volume of distribution at steady state in rat at 3 mg/kg, iv; type: ADME, organism-based; parameters: dose 3 mg/kg, route intravenous; conditions: in vivo, read-out: Vdss
[7] = system: Mus musculus; assay: Inhibition of transketolase in BALB/c mouse blood at 100 mg/kg, ip after 72 hrs; type: functional, organism-based; parameters: dose 100 mg/kg

| Compound | EC50 [1] | other results |
| --- | --- | --- |
| CCCCS/C(CCO)=C(/C)N(C=O)Cc1ccc(C)nc1N | 6000 nM | – |
| Cc1ccc(C[n+]2c(C)sc(CCO)c2C)c(N)n1 | 28 nM | – |
| C/C(=C(\CCO)SS/C(CCO)=C(/C)N(C=O)Cc1cccnc1N)N(C=O)Cc1cccnc1N | 479 nM | – |
| C/C(=C(\CCO)SCOC(=O)C(C)(C)C)N(C=O)Cc1ccc(C)nc1N | 116 nM | Cmax [2]: 3020 ng/mL; AUC [3]: 79200 ng·h/mL; clearance [4]: 0.63 mL/min/kg; MRT [5]: 48.3 h; Vd [6]: 1.83 L/kg |
| C/C(=C(\CCOC(=O)c1ccccc1)SC(=O)c1ccccc1)N(C=O)Cc1ccc(C)nc1N | 28 nM | – |
| Cc1ccc(CN(C=O)/C=C(/CCO)SS/C(=C\N(C=O)Cc2ccc(C)nc2N)CCO)c(N)n1 | 102000 nM | – |
| Cc1ccc(C[n+]2csc(CCO)c2)c(N)n1 | 9540 nM | – |
| Cc1c(CCO)sc[n+]1Cc1cccnc1N | 110 nM | – |
| C/C(=C(\CCO)SSCCC(=O)O)N(C=O)Cc1ccc(C)nc1N | 52 nM | – |
| C/C(=C1\CCOC(=O)S1)N(C=O)Cc1ccc(C)nc1N | 15 nM | – |
| Cc1ccc(C[n+]2csc(CCO)c2C)c(N)n1.[Cl-] | 18 nM | Cmax [2]: 6610 ng/mL; AUC [3]: 1250 ng·h/mL; clearance [4]: 41.3 mL/min/kg; MRT [5]: 0.72 h; Vd [6]: 1.98 L/kg |
| CC(=O)N(Cc1ccc(C)nc1N)/C(C)=C(/CCO)SS/C(CCO)=C(/C)N(Cc1ccc(C)nc1N)C(C)=O | 32 nM | – |

Stronger by EC50 [1], values ahead:

| EC50 [1] | Compound | other results |
| --- | --- | --- |
| 12 nM | C/C(=C(\CCO)SS/C(CCO)=C(/C)N(C=O)Cc1ccc(C)nc1N)N(C=O)Cc1ccc(C)nc1N | Cmax [2]: 1120 ng/mL; AUC [3]: 1590 ng·h/mL; clearance [4]: 32.5 mL/min/kg; MRT [5]: 12.7 h; Vd [6]: 19.3 L/kg; Activity [7]: Active |
| 8 nM | C/C(=C(\CCO)SS/C(CCO)=C(/C)N(C=O)Cc1ccc(Cl)nc1N)N(C=O)Cc1ccc(Cl)nc1N | – |
| 13 nM | C/C(=C(\CCO)SSCCO)N(C=O)Cc1ccc(C)nc1N | – |
| 8 nM | CC(=O)OCC/C(SC(C)=O)=C(\C)N(C=O)Cc1ccc(C)nc1N | – |
| 9 nM | Cc1c(CCO)sc[n+]1Cc1ccc(Cl)nc1N | – |
